Assay results published in publication PMC6002460, “Pharmacological evaluation of new constituents of “Spice”: synthetic cannabinoids based on indole, indazole, benzimidazole and carbazole scaffolds” (Forensic Toxicology, 2018).
Like-named read-outs stand apart in the source and are kept apart here.

Columns and labels:
human CB1 receptor [1] = target: T1, human CB1 receptor (Homo sapiens, UniProt P21554); parameters: method as in PMID 27429655; settings: previous study; cited from earlier work
T1 construct: expressed in transfected cells; host or cells: CHO cells (membrane preparations)
T1 sequence (P21554 whole entry): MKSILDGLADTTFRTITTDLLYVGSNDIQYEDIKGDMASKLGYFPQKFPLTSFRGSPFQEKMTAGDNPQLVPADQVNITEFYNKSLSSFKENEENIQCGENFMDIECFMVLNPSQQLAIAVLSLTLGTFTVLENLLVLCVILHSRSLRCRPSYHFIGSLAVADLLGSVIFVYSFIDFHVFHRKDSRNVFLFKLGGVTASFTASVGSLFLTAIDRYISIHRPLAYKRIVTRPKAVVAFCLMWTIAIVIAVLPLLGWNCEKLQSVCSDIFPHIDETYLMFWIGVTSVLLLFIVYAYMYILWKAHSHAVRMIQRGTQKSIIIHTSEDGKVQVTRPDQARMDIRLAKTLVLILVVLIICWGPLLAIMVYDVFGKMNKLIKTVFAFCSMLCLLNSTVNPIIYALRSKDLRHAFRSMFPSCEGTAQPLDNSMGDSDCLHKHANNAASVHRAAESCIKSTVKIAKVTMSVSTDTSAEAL

human GPR55 [2] = target: T2, human GPR55 (Homo sapiens, UniProt Q9Y2T6); settings: previous study; cited from earlier work
T2 construct: host or cells: CHO cells
T2 sequence (Q9Y2T6 whole entry): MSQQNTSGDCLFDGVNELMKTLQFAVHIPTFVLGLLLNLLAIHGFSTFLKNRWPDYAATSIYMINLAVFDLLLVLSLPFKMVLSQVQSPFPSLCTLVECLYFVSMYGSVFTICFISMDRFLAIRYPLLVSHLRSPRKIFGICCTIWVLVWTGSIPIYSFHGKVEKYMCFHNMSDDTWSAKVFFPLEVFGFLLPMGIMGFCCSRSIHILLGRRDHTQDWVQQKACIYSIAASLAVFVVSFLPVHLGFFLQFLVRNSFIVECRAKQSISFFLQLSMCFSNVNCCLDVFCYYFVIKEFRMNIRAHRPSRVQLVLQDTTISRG

human CB1 receptor [3] = target: T1, human CB1 receptor; assay: biochemical; format: binding; settings: [3H]CP55,940 0.1 nM, CHO cell membranes; read-out: Ki ± SEM Human CB1
human CB2 receptor [4] = target: T3, human CB2 receptor (Homo sapiens, UniProt P34972); assay: biochemical; format: binding; settings: [3H]CP55,940 0.1 nM, CHO cell membranes; read-out: Ki ± SEM Human CB2
T3 construct: expressed in transfected cells; host or cells: CHO cells (membrane preparations)
T3 sequence (P34972 whole entry): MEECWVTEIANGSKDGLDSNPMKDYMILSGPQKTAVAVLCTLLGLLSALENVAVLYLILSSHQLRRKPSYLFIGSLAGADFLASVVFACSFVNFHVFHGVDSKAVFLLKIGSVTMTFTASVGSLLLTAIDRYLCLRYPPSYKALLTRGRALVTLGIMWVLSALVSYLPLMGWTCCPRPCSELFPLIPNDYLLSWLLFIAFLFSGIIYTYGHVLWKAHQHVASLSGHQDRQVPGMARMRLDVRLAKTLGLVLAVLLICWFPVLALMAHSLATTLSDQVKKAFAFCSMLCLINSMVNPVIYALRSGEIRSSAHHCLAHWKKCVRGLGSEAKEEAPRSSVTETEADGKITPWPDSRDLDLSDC

human CB1 receptor [5] = target: T1, human CB1 receptor; assay: cAMP accumulation assay, CHO cells stably expressing CB1; format: cell-based
Method: (§1) cAMP accumulation assays were performed also as previously described. Briefly, CHO cells stably expressing the respective human CB receptor subtype CB1 or CB2 were seeded overnight. […] After incubation for 15 min the buffer was removed, and the cells were lyzed. The amount of cAMP was determined in a radioligand binding assay by incubating 50 µL of the cell lysate with 3 nM [^3H]cAMP in the presence of protein preparations from bovine adrenal glands (cAMP binding protein). Bound and unbound radioligand were separated by rapid filtration through GF/B filters, and radioactivity was determined by liquid scintillation counting. To test for antagonistic activity, test compounds were added to Hank’s buffered salt solution (HBSS) containing 10% dimethyl sulfoxide (DMSO), 10 min after the application of Ro-20-1724, and the mixture was incubated for 20 min at 37 °C.
(§2) As a next step, we investigated the compounds in cAMP accumulation assays, to obtain information on their functionality (Fig. 3). CB receptors are Gi protein-coupled and thus reduce the levels of cAMP in the cells upon activation.

human CB2 receptor [6] = target: T3, human CB2 receptor; assay: cAMP accumulation assay, CHO cells stably expressing CB2; format: cell-based
Method: as §1, §2

human GPR55 [7] = target: T2, human GPR55; assay: β-Arrestin PathHunter assay, recombinant CHO cells expressing GPR55; format: cell-based; settings: for Human GPR55 % inhibition: antagonist mode versus LPI 1 µM; for Human GPR55 % inhibition / Human GPR55 % activation: value in parentheses
Method: (§3) β-Arrestin assays were performed in recombinant CHO cells expressing either the human GPR18 or the human GPR55 as described before using the β-galactosidase enzyme fragment complementation technology (β-arrestin PathHunter™ assay; DiscoverX, Fremont, CA, USA).
(§4) The orphan receptors GPR18 and GPR55 can interact with certain natural and synthetic cannabinoids. […] Therefore, we investigated the new series of indole, indazole, benzimidazole and carbazole-derived structures in β-arrestin assays at GPR18 and GPR55 (Table 2). […] For the lipophilic substitutions, the following rank order of potency was observed: ethyl > methyl > chloro > fluoro. Therefore, it can be concluded that a lipophilic substitution in position 4 of the naphthyl residue was a requirement for GPR55 inhibition.

human GPR18 = target: T4, human GPR18 (Homo sapiens, UniProt Q14330); assay: β-Arrestin PathHunter assay, recombinant CHO cells expressing GPR18; format: cell-based; settings: for Human GPR18 % activation / Human GPR18 % inhibition: value in parentheses
T4 construct: host or cells: CHO cells
T4 sequence (Q14330 1-331): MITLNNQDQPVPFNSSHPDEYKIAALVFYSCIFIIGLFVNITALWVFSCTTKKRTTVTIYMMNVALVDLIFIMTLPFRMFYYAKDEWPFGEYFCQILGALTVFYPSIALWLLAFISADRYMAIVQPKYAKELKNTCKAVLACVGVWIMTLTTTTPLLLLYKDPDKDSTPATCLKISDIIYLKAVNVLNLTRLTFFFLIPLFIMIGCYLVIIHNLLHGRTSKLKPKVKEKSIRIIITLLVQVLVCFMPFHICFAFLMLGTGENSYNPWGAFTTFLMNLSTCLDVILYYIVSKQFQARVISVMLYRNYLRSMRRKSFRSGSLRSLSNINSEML
Method: as §3, §4

CB1 receptor [8] = settings: membrane potential assay, cited from earlier work
CB2 receptor [9] = settings: membrane potential assay, cited from earlier work
rats = system: rats; parameters: method as in PMID 27421060; settings: cited from earlier work
CB1 receptor [10] = target: CB1 receptor; parameters: method as in Bowden et al. [43]; settings: HTRF cAMP accumulation; ref Bowden et al. [43]; cited from earlier work
CB2 receptor [11] = target: CB2 receptor; parameters: method as in Bowden et al. [43]; settings: HTRF cAMP accumulation; ref Bowden et al. [43]; cited from earlier work
CB1 receptor [12] = target: CB1 receptor; parameters: method as in Wiley et al. [41]; settings: versus 0.62 nM [3H]CP55,940; ref Wiley et al. [41]; cited from earlier work
CB2 receptor [13] = target: CB2 receptor; parameters: method as in Wiley et al. [41]; settings: versus 0.62 nM [3H]CP55,940; ref Wiley et al. [41]; cited from earlier work
[14] = parameters: method as in Wiley et al. [41]; settings: receptor subtype not stated; ref Wiley et al. [41]; read-out: EC50 in [35S]GTPγS assays; cited from earlier work
[15] = compound at 10 µM, normalized to CP55,940 (1 µM)

SMILES | Ki (human CB1 receptor [3]) | Ki (human CB2 receptor [4]) | EC50 (human GPR55 [7]) | IC50 (human GPR55 [7]) | Human GPR55 % inhibition (human GPR55 [7]) | EC50 (human GPR18) | IC50 (human GPR18) | Human GPR18 % activation (human GPR18; agonist mode) | Human GPR18 % inhibition (human GPR18; antagonist mode) | Human GPR55 % activation (human GPR55 [7]; agonist mode) | EC50 (CB1 receptor [10]) | EC50 (CB2 receptor [11]) | other results
O=C(Oc1cccc2cccnc12)c1cn(CC2CCCCC2)c2ccccc12 [BB-22] |  |  |  |  |  |  |  |  |  |  |  |  | Ki (human CB1 receptor [1]): 0.217 nM
CCc1ccc(C(=O)c2cn(CCCCCF)c3ccccc23)c2ccccc12 [EAM-2201] |  |  |  |  |  |  |  |  |  |  |  |  | IC50 (human GPR55 [2]): 1860 nM
COC(=O)[C@@H](NC(=O)c1nn(Cc2ccc(F)cc2)c2ccccc12)C(C)(C)C [compound 12, MDMB-FUBINACA] | 0.0985 ± 0.0291 nM | 0.13 ± 0.01 nM | > 10000 nM | > 10000 nM | 30% | > 10000 nM | > 10000 nM | 18% | 31% |  |  |  | EC50 (human CB1 receptor [5]): 0.0641 nM; EC50 (human CB2 receptor [6]): 0.756 nM; EC50 (CB1 receptor [8]; ref Banister et al. [38]): 3.9 nM; EC50 (CB2 receptor [9]; ref Banister et al. [38]): 55 nM; hypothermal response (rats): highest hypothermal response
CC(C)(NC(=O)c1cn(CCCCCF)c2ccccc12)c1ccccc1 [compound 32, 5F-Cumyl-PICA] | 1.37 ± 0.26 nM | 29.1 ± 2.4 nM | > 10000 nM | > 10000 nM |  | > 10000 nM | > 10000 nM | 16% |  | 14% | < 0.1 nM | 0.37 nM | EC50 (CB1 receptor [8]; ref Longworth et al. [51]): 2.8 nM; EC50 (CB2 receptor [9]; ref Longworth et al. [51]): 39.6 nM
CC(C)(NC(=O)c1nn(CC2CCOCC2)c2ccccc12)c1ccccc1 [compound 33] | 1.23 ± 0.2 nM | 1.38 ± 0.86 nM | > 10000 nM | > 10000 nM | 7% | > 10000 nM | > 10000 nM | 11% | 9% | 11% | 0.1 nM | 0.59 nM | 
O=C(c1cccc2ccccc12)c1nc2ccccc2n1CCCCCF [compound 42, FUBIMINA] | 502 ± 181 nM | 99 ± 28.4 nM |  |  | 44% |  |  | 42% | 14% | 16% |  |  | CB1 receptor activation in cAMP accumulation assay (in words) (human CB1 receptor [5]; [15]): partial activation; CB2 receptor activation in cAMP accumulation assay (in words) (human CB2 receptor [6]; [15]): partial activation; EC50 (human GPR55 [7]; agonist mode, read-out: Human GPR55 EC50): > 10000 nM; IC50 (human GPR55 [7]; antagonist mode versus lysophosphatidylinositol (LPI, 1 µM), read-out: Human GPR55 IC50): > 10000 nM; EC50 (human GPR18; agonist mode, read-out: Human GPR18 EC50): > 10000 nM; IC50 (human GPR18; antagonist mode, read-out: Human GPR18 IC50): > 10000 nM; Ki (CB1 receptor [12]): 296 nM; Ki (CB2 receptor [13]): 23.5 nM; EC50 [14]: 2470 nM
